Results: ChEMBL document CHEMBL1154382, “Preliminary SAR analysis of novel antiproliferative N(6),5'-bis-ureidoadenosine derivatives” (2009)

Key:
Type in all cases: functional
ACHN [1] = assay: Antiproliferative activity against human ACHN cells
U-251 [2] = assay: Antiproliferative activity against human U251 cells at 10 uM assessed as cell growth inhibition relative to control; details: values are per cent of control
A498 = assay: Antiproliferative activity against human A498 cells at 10 uM assessed as cell growth inhibition relative to control; details: values are per cent of control
CCRF-CEM [3] = assay: Antiproliferative activity against human CCRF-CEM cells at 10 uM assessed as cell growth inhibition relative to control; details: values are per cent of control
HCC 2998 = assay: Antiproliferative activity against human HCC2998 cells at 10 uM assessed as cell growth inhibition relative to control; details: values are per cent of control
DU-145 [4] = assay: Antiproliferative activity against human DU145 cells
786-0 [5] = assay: Antiproliferative activity against human 786-0 cells at 10 uM assessed as cell growth inhibition relative to control; details: values are per cent of control
SF-295 = assay: Antiproliferative activity against human SF295 cells at 10 uM assessed as cell growth inhibition relative to control; details: values are per cent of control
TK-10 [6] = assay: Antiproliferative activity against human TK10 cells at 10 uM assessed as cell growth inhibition relative to control; details: values are per cent of control
HT-29 = assay: Antiproliferative activity against human HT-29 cells at 10 uM assessed as cell growth inhibition relative to control; details: values are per cent of control
NCI-H23 [7] = assay: Antiproliferative activity against human NCI-H23 cells
786-0 [8] = assay: Antiproliferative activity against human 786-0 cells
MDA-MB-231 [9] = assay: Antiproliferative activity against human MDA-MB-231 cells
UO-31 = assay: Antiproliferative activity against human UO31 cells
EKVX [10] = assay: Antiproliferative activity against human EKVX cells at 10 uM assessed as cell growth inhibition relative to control; details: values are per cent of control
MDA-MB-231 [11] = assay: Antiproliferative activity against human MDA-MB-231 cells at 10 uM assessed as cell growth inhibition relative to control; details: values are per cent of control
OVCAR-3 = assay: Antiproliferative activity against human OVCAR-3 cells
[12] = Antiproliferative activity against human […] cells
OVCAR-8 = assay: Antiproliferative activity against human OVCAR8 cells at 10 uM assessed as cell growth inhibition relative to control; details: values are per cent of control
SW-620 [13] = assay: Antiproliferative activity against human SW620 cells at 10 uM assessed as cell growth inhibition relative to control; details: values are per cent of control
DU-145 [14] = assay: Antiproliferative activity against human DU145 cells at 10 uM assessed as cell growth inhibition relative to control; details: values are per cent of control
Malme-3M = assay: Antiproliferative activity against human MALME-3M cells
CCRF-CEM [15] = assay: Antiproliferative activity against human CCRF-CEM cells
NCI-H322M [16] = assay: Antiproliferative activity against human NCI-H322M cells
HCT-116 [17] = assay: Antiproliferative activity against human HCT116 cells at 10 uM assessed as cell growth inhibition relative to control; details: values are per cent of control
EKVX [18] = assay: Antiproliferative activity against human EKVX cells
U-251 [19] = assay: Antiproliferative activity against human U251 cells
ACHN [20] = assay: Antiproliferative activity against human ACHN cells at 10 uM assessed as cell growth inhibition relative to control; details: values are per cent of control
BT-549 = assay: Antiproliferative activity against human BT549 cells
HOP-92 [21] = assay: Antiproliferative activity against human HOP92 cells
[22] = Antiproliferative activity against human Hs 578T cells at 10 uM assessed as cell growth inhibition relative to control; details: values are per cent of control
NCI-H322M [23] = assay: Antiproliferative activity against human NCI-H322M cells at 10 uM assessed as cell growth inhibition relative to control; details: values are per cent of control
UACC-257 [24] = assay: Antiproliferative activity against human UACC257 cells at 10 uM assessed as cell growth inhibition relative to control; details: values are per cent of control
HOP-92 [25] = assay: Antiproliferative activity against human HOP92 cells at 10 uM assessed as cell growth inhibition relative to control; details: values are per cent of control
NCI-H460 [26] = assay: Antiproliferative activity against human NCI-H460 cells
SNB-75 [27] = assay: Antiproliferative activity against human SNB75 cells at 10 uM assessed as cell growth inhibition relative to control; details: values are per cent of control
PC-3 [28] = assay: Antiproliferative activity against human PC3 cells at 10 uM assessed as cell growth inhibition relative to control; details: values are per cent of control
UACC-257 [29] = assay: Antiproliferative activity against human UACC257 cells
CAKI-1 [30] = assay: Antiproliferative activity against human Caki1 cells
SK-MEL-5 = assay: Antiproliferative activity against human SK-MEL-5 cells at 10 uM assessed as cell growth inhibition relative to control; details: values are per cent of control
SK-OV-3 = assay: Antiproliferative activity against human SKOV3 cells at 10 uM assessed as cell growth inhibition relative to control; details: values are per cent of control
MDA-MB-468 = assay: Antiproliferative activity against human MDA-MB-468 cells at 10 uM assessed as cell growth inhibition relative to control; details: values are per cent of control
MOLT-4 = assay: Antiproliferative activity against human MOLT4 cells at 10 uM assessed as cell growth inhibition relative to control; details: values are per cent of control
SNB-75 [31] = assay: Antiproliferative activity against human SNB75 cells
M14 = assay: Antiproliferative activity against human M14 cells at 10 uM assessed as cell growth inhibition relative to control; details: values are per cent of control
PC-3 [32] = assay: Antiproliferative activity against human PC3 cells
HCT-116 [33] = assay: Antiproliferative activity against human HCT116 cells
KM12 = assay: Antiproliferative activity against human KM12 cells
TK-10 [34] = assay: Antiproliferative activity against human TK10 cells
CAKI-1 [35] = assay: Antiproliferative activity against human Caki1 cells at 10 uM assessed as cell growth inhibition relative to control; details: values are per cent of control
NCI-H226 = assay: Antiproliferative activity against human NCI-H226 cells
NCI-H460 [36] = assay: Antiproliferative activity against human NCI-H460 cells at 10 uM assessed as cell growth inhibition relative to control; details: values are per cent of control
NCI-H23 [37] = assay: Antiproliferative activity against human NCI-H23 cells at 10 uM assessed as cell growth inhibition relative to control; details: values are per cent of control
IGROV-1 = assay: Antiproliferative activity against human IGROV1 cells
UACC-62 = assay: Antiproliferative activity against human UACC62 cells
SW-620 [38] = assay: Antiproliferative activity against human SW620 cells
K562 = assay: Antiproliferative activity against human K562 cells at 10 uM assessed as cell growth inhibition relative to control; details: values are per cent of control
SK-MEL-2 = assay: Antiproliferative activity against human SK-MEL-2 cells at 10 uM assessed as cell growth inhibition relative to control; details: values are per cent of control
HOP-62 [39] = assay: Antiproliferative activity against human HOP62 cells at 10 uM assessed as cell growth inhibition relative to control; details: values are per cent of control
HOP-62 [40] = assay: Antiproliferative activity against human HOP62 cells
LOX IMVI = assay: Antiproliferative activity against human LOXIMVI cells at 10 uM assessed as cell growth inhibition relative to control; details: values are per cent of control

Structure (SMILES): CCOC(=O)C[C@H]1[C@@H](O[Si](C)(C)C(C)(C)C)[C@H](n2cnc3c(NC(=O)Nc4ccccc4)ncnc32)O[C@@H]1COC(=O)NC
- GI50 (ACHN [1]): 5.92 µM
- growth, % of control at 10 µM (U-251 [2]): 52%
- growth, % of control at 10 µM (A498): 77%
- growth, % of control at 10 µM (CCRF-CEM [3]): 57%
- growth, % of control at 10 µM (HCC 2998): -9%
- GI50 (DU-145 [4]): 5.21 µM
- growth, % of control at 10 µM (786-0 [5]): 73%
- growth, % of control at 10 µM (SF-295): 66%
- growth, % of control at 10 µM (TK-10 [6]): 88%
- growth, % of control at 10 µM (HT-29): 9%
- GI50 (NCI-H23 [7]): 12.9 µM
- GI50 (786-0 [8]): 7.94 µM
- GI50 (MDA-MB-231 [9]): 17.5 µM
- GI50 (UO-31): 5.7 µM
- growth, % of control at 10 µM (EKVX [10]): 68%
- growth, % of control at 10 µM (MDA-MB-231 [11]): 72%
- GI50 (OVCAR-3): 2.42 µM
- GI50 [12]: 2.16 µM
- growth, % of control at 10 µM (OVCAR-8): 74%
- growth, % of control at 10 µM (SW-620 [13]): 72%
- growth, % of control at 10 µM (DU-145 [14]): 59%
- GI50 (Malme-3M): 3.34 µM
- GI50 (CCRF-CEM [15]): 3.23 µM
- GI50 (NCI-H322M [16]): 31.7 µM
- growth, % of control at 10 µM (HCT-116 [17]): 17%
- GI50 (EKVX [18]): 3.39 µM
- GI50 (U-251 [19]): 7.57 µM
- growth, % of control at 10 µM (ACHN [20]): 26%
- GI50 (BT-549): 2.07 µM
- GI50 (HOP-92 [21]): 6.52 µM
- growth, % of control at 10 µM [22]: 57%
- growth, % of control at 10 µM (NCI-H322M [23]): 91%
- growth, % of control at 10 µM (UACC-257 [24]): 60%
- growth, % of control at 10 µM (HOP-92 [25]): 62%
- GI50 (NCI-H460 [26]): 4.45 µM
- growth, % of control at 10 µM (SNB-75 [27]): 45%
- growth, % of control at 10 µM (PC-3 [28]): 32%
- GI50 (UACC-257 [29]): 20.8 µM
- GI50 (CAKI-1 [30]): 3.72 µM
- growth, % of control at 10 µM (SK-MEL-5): 24%
- growth, % of control at 10 µM (SK-OV-3): 95%
- growth, % of control at 10 µM (MDA-MB-468): 62%
- growth, % of control at 10 µM (MOLT-4): 34%
- GI50 (SNB-75 [31]): 10.3 µM
- growth, % of control at 10 µM (M14): 57%
- GI50 (PC-3 [32]): 2.87 µM
- GI50 (HCT-116 [33]): 2.33 µM
- GI50 (KM12): 3.21 µM
- GI50 (TK-10 [34]): 10.7 µM
- growth, % of control at 10 µM (CAKI-1 [35]): 61%
- GI50 (NCI-H226): 11.8 µM
- growth, % of control at 10 µM (NCI-H460 [36]): 13%
- growth, % of control at 10 µM (NCI-H23 [37]): 88%
- GI50 (IGROV-1): 13.7 µM
- GI50 (UACC-62): 15.8 µM
- GI50 (SW-620 [38]): 4.59 µM
- growth, % of control at 10 µM (K562): 23%
- growth, % of control at 10 µM (SK-MEL-2): 60%
- growth, % of control at 10 µM (HOP-62 [39]): 77%
- GI50 (HOP-62 [40]): 14.7 µM
- growth, % of control at 10 µM (LOX IMVI): 49%
